According to publication PMC12637021, “Talin–tensin3 interactions regulate fibrillar adhesion formation and tensin3 phase separation” (The Journal of Cell Biology, 2025):
Where “and” joins values, the source holds several entries; their conditions need not be identical. Equal values may be shown once. Where a SMILES comes first, the peptide text is derived from it.

Assays:
talin R11 = conditions: previous observation; ref Atherton et al., 2022; read-out: Kd, talin R11 with tensin3 TBS; cited from earlier work
[1] = molecular target: T1, talin R4 domain (residues 913–1,044) (Mus musculus, UniProt P26039); experiment: ITC, tensin3 TBS peptide binding to talin R4; conditions: ITC 25°C, pH 6.5; mean ± SD from triplicate measurements
T1 construct: R4 domain (residues 913–1,044); hexahistidine-tag followed by TEV protease cleavage site (N); made in house; host or cells: E. coli BL21
Description: (§1) Figure 3. Structural characterization of the multidomain talin–tensin3 interaction. (A) Representative images of NIH3T3 cells co-expressing GFP-R11DD-cBAK WT or carrying K2024E, K2031E, or both (K2024E+K2031E) with mCh-IDR. (B) Mitochondrial pulldown experiment using the same constructs as in A. (C) AlphaFold3 model of the talin R8–tensin3 TBS complex. TBS (orange) was predicted to engage the α2-α3 face of the R8 bundle (cyan). K1500 and R1510 (brown) are highlighted on the […]. (D) NIH3T3 cells co-expressing GFP-R7R8-cBAK WT or carrying K1500E or R1510E with mCh-IDR. (E) Mitochondrial pulldown experiment using constructs as in D. (F) Cells co-expressing mCh-TNS3-WT-cBAK and GFP-TLN1 constructs (R8m, K1500E; R11m, K2024E+K2031E). mCh-TNS3-L702E-cBAK was used as a negative control. (G and H) Overlay ^1H-^15N HSQC spectra of ^15N-labeled talin R3 (G) and talin R4 (H), at a concentration of 200 µM, in the absence (blue) and presence (red) of tensin3 TBS peptide at a molar ratio of 1:2. Magnified views in the right panels show the cross-peaks corresponding to the residues K869 and V871 of talin R3 (G) and the residues S927 and G969 of talin R4 (H), illustrating the progressive chemical shift changes at peptide molar ratios of 0 (blue), 0.25 (orange), 0.5 (green), 1.0 (coral), and 2.0 (red). The HSQC spectra of R3 and R4 were recorded at 700 and 800 MHz, respectively. (I and J) Mapping of the residue-specific CSD (related to Fig. S2, H and I) on the AlphaFold3 models of talin R3 (I) and R4 (J) colored in cyan, respectively, in complex with tensin3 TBS (orange). […]
(§2) Recombinant mouse talin1 R3 and R7R8 domains were expressed using the pET-151/D-TOPO vector. […] Final protein concentrations were determined by measuring absorbance at 280 nm using a NanoDrop spectrophotometer (Thermo Fisher Scientific), based on calculated extinction coefficients.
(§3) ITC experiments were performed using a MicroCal PEAQ-ITC automated instrument (Malvern Panalytical) at 25°C. […] Data were analyzed using the one-site binding model implemented in MicroCal PEAQ-ITC analysis software (Malvern Panalytical).

[2] = molecular target: T2, talin R7R8 region (residues 1,359–1,659) (Mus musculus, UniProt P26039); experiment: 1H-15N HSQC NMR titration of talin R7R8; format: binding; conditions: intermediate exchange
T2 construct: R7R8 region (residues 1,359–1,659); hexahistidine-tag followed by TEV protease cleavage site (N); made in house; host or cells: E. coli BL21
Protocol: Recombinant mouse talin1 R3 and R7R8 domains were expressed using the pET-151/D-TOPO vector. The recombinant mouse talin R4 domain was expressed using the pET-28a(+)vectors. Both vectors include an N-terminal hexahistidine-tag followed by a tobacco etch virus protease cleavage site. Proteins were overexpressed in BL21 cells and purified via nickel-affinity chromatography with a single-step elution at 250 mM imidazole concentration. For NMR studies, uniformly ^15N-labeled proteins were produced by growing cells in 2xM9 minimal medium supplemented with 1 g/Liter ^15N-ammonium chloride (^15NH4Cl) as the sole nitrogen source. […] Final protein concentrations were determined by measuring absorbance at 280 nm using a NanoDrop spectrophotometer (Thermo Fisher Scientific), based on calculated extinction coefficients.
NMR spectra were acquired on Bruker Neo 700 MHz (for talin R3) or 800 MHz (for talin R4 and R7R8) spectrometers equipped with TCI cryoprobes. […] NMR data were processed using TopSpin (Bruker) and analyzed with Collaborative Computational Project for NMR software AnalysisAssign (version 3.2). HSQC spectra were measured using a standard Bruker pulse sequence. […] Residue-specific chemical shift differences were calculated using HSQC spectra in the presence of 400 µM tensin3 TBS peptide.

[3] = molecular target: T3, talin R3 domain (residues 787–911) (Mus musculus, UniProt P26039); experiment: ITC, tensin3 TBS peptide binding to talin R3; conditions: ITC 25°C, pH 6.5; mean ± SD from triplicate measurements
T3 construct: recombinant talin R3 domain (residues 787–911); hexahistidine-tag followed by TEV protease cleavage site (N); made in house; host or cells: E. coli BL21
Description: as §1, §2, §3

[4] = molecular target: T2, talin R7R8 region (residues 1,359–1,659); experiment: ITC, tensin3 TBS peptide binding to talin R7R8; conditions: ITC 25°C, pH 6.5; mean ± SD from triplicate measurements
Description: as §1, §2, §3

[5] = molecular target: T3, talin R3 domain (residues 787–911); experiment: 1H-15N HSQC NMR titration of talin R3; format: binding
Protocol: (§4) Recombinant mouse talin1 R3 and R7R8 domains were expressed using the pET-151/D-TOPO vector. The recombinant mouse talin R4 domain was expressed using the pET-28a(+)vectors. Both vectors include an N-terminal hexahistidine-tag followed by a tobacco etch virus protease cleavage site. Proteins were overexpressed in BL21 cells and purified via nickel-affinity chromatography with a single-step elution at 250 mM imidazole concentration. For NMR studies, uniformly ^15N-labeled proteins were produced by growing cells in 2xM9 minimal medium supplemented with 1 g/Liter ^15N-ammonium chloride (^15NH4Cl) as the sole nitrogen source. Following purification, proteins were concentrated and buffer-exchanged using PD-10 desalting columns (Cytiva). Final protein concentrations were determined by measuring absorbance at 280 nm using a NanoDrop spectrophotometer (Thermo Fisher Scientific), based on calculated extinction coefficients.
(§5) NMR spectra were acquired on Bruker Neo 700 MHz (for talin R3) or 800 MHz (for talin R4 and R7R8) spectrometers equipped with TCI cryoprobes. All experiments were performed at 298 K using 200 µM of uniformly ^15N-labeled talin R3, R4, or R7R8 in 20 mM sodium phosphate buffer (pH 6.4) containing 50 mM NaCl, 0.1 mM tris(2-carboxyethyl)phosphine (TCEP), and 5% (vol/vol) D2O. For titration experiments, synthetic tensin3 TBS peptide (aa 692–718) was added at final concentrations of 50, 100, 200, 400, and 800 µM. NMR data were processed using TopSpin (Bruker) and analyzed with Collaborative Computational Project for NMR software AnalysisAssign (version 3.2). HSQC spectra were measured using a standard Bruker pulse sequence. HSQC signals of the free proteins were assigned using the available backbone chemical shift data from the Biological Magnetic Resonance Data Bank (BMRB entries; R3: 17332; R4: 18313). The signals of the bound state were assigned by following the chemical shift changes with the increased concentrations of the peptide. Residue-specific chemical shift differences were calculated using HSQC spectra in the presence of 400 µM tensin3 TBS peptide.

[6] = molecular target: T1, talin R4 domain (residues 913–1,044); experiment: 1H-15N HSQC NMR titration of talin R4; format: binding
Protocol: as §4, §5

[7] = 1:2 molar ratio (400 µM TBS peptide), threshold 5× SD

T3 sequence (P26039 787-911): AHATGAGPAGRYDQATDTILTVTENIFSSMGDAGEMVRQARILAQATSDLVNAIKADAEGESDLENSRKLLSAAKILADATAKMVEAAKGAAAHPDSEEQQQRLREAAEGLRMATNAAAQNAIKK
T2 sequence (P26039 1359-1659 limits assumed): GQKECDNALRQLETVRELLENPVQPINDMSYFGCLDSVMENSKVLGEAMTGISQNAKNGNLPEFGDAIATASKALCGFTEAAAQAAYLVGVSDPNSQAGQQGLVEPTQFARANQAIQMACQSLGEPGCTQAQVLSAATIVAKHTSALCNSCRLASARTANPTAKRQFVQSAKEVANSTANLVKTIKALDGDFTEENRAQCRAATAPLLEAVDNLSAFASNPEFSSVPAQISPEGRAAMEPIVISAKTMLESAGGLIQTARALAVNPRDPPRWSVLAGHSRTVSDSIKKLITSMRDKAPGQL
T1 sequence (P26039 913-1044 limits assumed): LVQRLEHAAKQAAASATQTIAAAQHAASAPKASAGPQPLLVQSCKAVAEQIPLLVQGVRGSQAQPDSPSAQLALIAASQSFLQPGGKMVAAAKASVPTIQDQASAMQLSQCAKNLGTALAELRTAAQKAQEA

In the case of `CC[C@H](C)[C@H](NC(=O)[C@H](CO)NC(=O)[C@H](CCC(N)=O)NC(=O)[C@H](CC(=O)O)NC(=O)[C@@H](NC(=O)[C@H](CC(=O)O)NC(=O)[C@H](CC(C)C)NC(=O)[C@@H](N)[C@@H](C)O)[C@@H](C)CC)C(=O)N[C@@H](CCC(=O)O)C(=O)N[C@@H](CCC(N)=O)C(=O)N[C@@H](CC(C)C)C(=O)N[C@@H](CC(N)=O)C(=O)N[C@@H](CCCNC(=N)N)C(=O)N[C@@H](CC(C)C)C(=O)N[C@H](C(=O)N[C@@H](CC(C)C)C(=O)N[C@@H](CCC(=O)O)C(=O)N[C@@H](CC(C)C)C(=O)N[C@@H](CC(=O)O)C(=O)N1CCC[C@H]1C(=O)N[C@H](C(=O)N[C@@H](Cc1ccccc1)C(=O)N[C@@H](CCC(=O)O)C(=O)N1CCC[C@H]1C(=O)N[C@H](C(=O)N1CCC[C@H]1C(=O)N[C@H](C(=O)O)[C@@H](C)O)[C@@H](C)CC)[C@@H](C)O)[C@@H](C)CC` [tensin3 TBS] (H-TLDIDQSIEQLNRLILELDPTFEPIPT-OH; N-terminus and C-terminus assumed), the Kd (talin R11) is listed as 17 µM, the “Gibbs free energy (ΔG), R4-TBS” value [1] is listed as -6.29 ± 0.086 kcal/mol and the “enthalpy change (ΔH), R4-TBS” value [1] is listed as 2.94 ± 0.586 kcal/mol and 2.94 ± 0.574 kcal/mol. The “entropy contribution (−TΔS), R4-TBS” value [1] was -9.32 ± 0.626 kcal/mol, the “Kd range suggested by exchange rate in NMR, R7R8” value [2] was “micromolar (µM) range” and the “Gibbs free energy (ΔG), R3-TBS” value [3] was -6.41 ± 0.0478 kcal/mol. The “enthalpy change (ΔH), R3-TBS” value [3] was 1.68 ± 0.148 kcal/mol and 1.68 ± 0.14 kcal/mol, the “entropy contribution (−TΔS), R3-TBS” value [3] was -8.08 ± 0.0956 kcal/mol and the “Gibbs free energy (ΔG), R7R8-TBS” value [4] was -6.549 ± 0.0406 kcal/mol. For the same compound, the “enthalpy change (ΔH), R7R8-TBS” value [4] was 10.21 ± 0.492 kcal/mol, the “entropy contribution (−TΔS), R7R8-TBS” value [4] was -16.75 ± 0.464 kcal/mol and the “HSQC spectral changes on addition of TBS, R3” value ([5]; 200 µM 15N-talin R3, 298 K, 20 mM sodium phosphate pH 6.4, 50 mM NaCl, 0.1 mM TCEP, 5% D2O, 700 MHz, molar ratio up to 1:2) was “substantial changes”. The “location of significant chemical shift perturbations, R3” value [5, 7] was “α2 and α3 helices of R3”, the “Kd range suggested by exchange rate in NMR, R3” value ([5]; intermediate exchange) was “micromolar (µM) range” and the “HSQC spectral changes on addition of TBS, R4” value ([6]; 200 µM 15N-talin R4, 298 K, 20 mM sodium phosphate pH 6.4, 50 mM NaCl, 0.1 mM TCEP, 5% D2O, 800 MHz, molar ratio up to 1:2) was “substantial changes”. For the same compound, the “location of significant chemical shift perturbations, R4” value [6, 7] was “α1 and α2 helices of R4” and the “Kd range suggested by exchange rate in NMR, R4” value ([6]; intermediate exchange) was “micromolar (µM) range”.
